The target of this assay is recombinant GST-LRRK2 (wild-type) (Homo sapiens (Human), UniProt Q5S007). The experiment in a line: LRRK2 TR-FRET peptide assay (in vitro kinase activity), wild-type. In kind it is biochemical. On the procedure:
Compounds as described herein (compounds of Formula I, e.g., compounds of the above Examples) are tested for their in vitro kinase activities using various LRRK2 (including LRRK2 G2019S mutant) assays. […] Serially diluted compounds (1% DMSO as co-solvent) were pre-incubated with recombinant GST-LRRK2 (wild-type, or G2019S mutant, Invitrogen) for 15 minutes at room temperature in 384-well Corning black plates. […] The inhibition of each well was calculated using the control and background readings for that plate. IC50 values were determined from dose-response curves using eight concentrations from the serial dilution of the test compounds.
(TR-FRET usually uses a lanthanide donor and a delayed reading to cut background.)

Where [1] appears, read: 100 μM ATP, 100 nM biotin-LRRKtide substrate, 10 nM kinase, 60 minutes at room temperature.

Structures are written as SMILES. pIC50: −log10 of the molar value. Like-named read-outs stand apart in the source and are kept apart here.

For orientation: pIC50 means −log10 of the IC50, conventionally taken in molar units.

Sequence of recombinant GST-LRRK2 (wild-type) (Q5S007 whole entry): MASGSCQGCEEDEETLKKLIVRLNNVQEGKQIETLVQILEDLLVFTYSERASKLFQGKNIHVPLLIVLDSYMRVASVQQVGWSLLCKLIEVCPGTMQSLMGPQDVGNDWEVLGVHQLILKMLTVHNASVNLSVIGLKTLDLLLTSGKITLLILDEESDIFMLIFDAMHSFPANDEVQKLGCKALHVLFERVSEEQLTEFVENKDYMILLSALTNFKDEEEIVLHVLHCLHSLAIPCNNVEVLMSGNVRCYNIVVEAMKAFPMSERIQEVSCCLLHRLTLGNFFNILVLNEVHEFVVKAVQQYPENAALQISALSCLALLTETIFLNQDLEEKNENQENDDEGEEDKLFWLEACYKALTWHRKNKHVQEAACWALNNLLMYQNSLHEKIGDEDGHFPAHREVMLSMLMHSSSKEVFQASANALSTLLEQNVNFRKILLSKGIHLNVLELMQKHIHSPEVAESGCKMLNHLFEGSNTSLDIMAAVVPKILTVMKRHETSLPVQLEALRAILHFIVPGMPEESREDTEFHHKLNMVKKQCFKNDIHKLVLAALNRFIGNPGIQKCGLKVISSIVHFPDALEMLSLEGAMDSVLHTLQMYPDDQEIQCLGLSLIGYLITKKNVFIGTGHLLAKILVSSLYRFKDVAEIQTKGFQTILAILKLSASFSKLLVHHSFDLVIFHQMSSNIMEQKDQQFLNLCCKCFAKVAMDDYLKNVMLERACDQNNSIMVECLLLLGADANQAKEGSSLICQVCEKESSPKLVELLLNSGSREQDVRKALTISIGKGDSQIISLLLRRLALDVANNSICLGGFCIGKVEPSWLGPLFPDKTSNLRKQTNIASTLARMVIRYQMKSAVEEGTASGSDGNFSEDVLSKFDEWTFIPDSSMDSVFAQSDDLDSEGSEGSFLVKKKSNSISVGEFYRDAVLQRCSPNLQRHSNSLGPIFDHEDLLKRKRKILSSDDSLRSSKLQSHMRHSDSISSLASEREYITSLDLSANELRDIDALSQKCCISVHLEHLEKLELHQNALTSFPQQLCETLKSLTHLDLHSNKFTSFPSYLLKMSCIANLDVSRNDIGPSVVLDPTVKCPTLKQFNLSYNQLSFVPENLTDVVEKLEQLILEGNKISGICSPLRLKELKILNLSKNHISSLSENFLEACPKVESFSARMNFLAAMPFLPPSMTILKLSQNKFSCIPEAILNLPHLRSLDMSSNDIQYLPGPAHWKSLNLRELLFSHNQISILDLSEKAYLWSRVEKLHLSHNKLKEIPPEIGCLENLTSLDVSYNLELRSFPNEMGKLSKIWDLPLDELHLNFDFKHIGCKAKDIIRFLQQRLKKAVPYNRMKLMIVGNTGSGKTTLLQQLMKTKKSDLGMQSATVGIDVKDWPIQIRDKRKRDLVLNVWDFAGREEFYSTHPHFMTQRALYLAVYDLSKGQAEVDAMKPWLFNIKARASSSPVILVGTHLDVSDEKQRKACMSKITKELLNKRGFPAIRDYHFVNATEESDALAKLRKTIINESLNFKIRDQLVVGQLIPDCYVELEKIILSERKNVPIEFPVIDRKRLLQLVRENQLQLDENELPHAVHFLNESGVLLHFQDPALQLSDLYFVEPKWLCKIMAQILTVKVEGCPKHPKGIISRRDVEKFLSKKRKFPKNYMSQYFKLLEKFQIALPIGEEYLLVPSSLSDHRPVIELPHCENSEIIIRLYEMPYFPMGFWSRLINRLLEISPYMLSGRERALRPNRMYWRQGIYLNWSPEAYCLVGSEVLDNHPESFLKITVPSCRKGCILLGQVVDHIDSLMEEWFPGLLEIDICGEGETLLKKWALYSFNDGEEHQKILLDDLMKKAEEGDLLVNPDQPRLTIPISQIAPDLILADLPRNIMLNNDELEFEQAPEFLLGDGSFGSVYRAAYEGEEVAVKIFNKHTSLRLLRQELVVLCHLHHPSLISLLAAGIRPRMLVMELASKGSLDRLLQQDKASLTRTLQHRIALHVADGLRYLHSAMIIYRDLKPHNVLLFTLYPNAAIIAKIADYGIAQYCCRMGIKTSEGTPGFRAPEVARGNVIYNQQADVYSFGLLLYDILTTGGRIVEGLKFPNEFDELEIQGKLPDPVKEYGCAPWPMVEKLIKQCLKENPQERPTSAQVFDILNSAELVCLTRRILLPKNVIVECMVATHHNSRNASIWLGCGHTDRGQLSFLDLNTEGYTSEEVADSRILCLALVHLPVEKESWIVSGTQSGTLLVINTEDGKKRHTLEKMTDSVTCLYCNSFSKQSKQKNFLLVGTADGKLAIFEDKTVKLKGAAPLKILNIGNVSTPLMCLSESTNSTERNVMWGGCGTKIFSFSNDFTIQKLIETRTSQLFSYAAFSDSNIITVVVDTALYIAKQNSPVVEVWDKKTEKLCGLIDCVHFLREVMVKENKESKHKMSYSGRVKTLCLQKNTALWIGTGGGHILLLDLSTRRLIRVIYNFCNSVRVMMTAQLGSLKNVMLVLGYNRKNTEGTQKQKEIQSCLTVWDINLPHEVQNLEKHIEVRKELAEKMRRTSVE

As for `C[C@@H](Nc1c(C(N)=O)nnc2cc(-c3ccc(N4CCOC4=O)cc3)ccc12)C1CC1` [Compound 9-213, (R)-4-(1-cyclopropylethylamino)-7-(4-(2-oxooxazolidin-3-yl)phenyl)cinnoline-3-carboxamide], the pIC50 under setting [1] is 9.00.

Consider `COc1ccccc1-c1ccc2c(NC(C)C)c(C(N)=O)nnc2c1` [Compound 2-96, 4-(isopropylamino)-7-(2-methoxyphenyl)cinnoline-3-carboxamide], for which the pIC50 under setting [1] was 6.46.

With `NC(=O)c1nnc2cc(-c3ccncc3)ccc2c1NCCO` [Compound 2-137, 4-(2-hydroxyethylamino)-7-(pyridin-4-yl)cinnoline-3-carboxamide], under setting [1], the pIC50 was 6.82.

On to `NC(=O)c1nnc2cc(-c3cccc(N4CCOCC4)c3)ccc2c1N` [Compound 1-6, 4-amino-7-(3-morpholinophenyl)cinnoline-3-carboxamide], for which the pIC50 under setting [1] was 6.92.

Consider `CC[C@@H](C)Nc1c(C(N)=O)nnc2cc(-c3ccc(S(C)(=O)=O)cc3)ccc12` [Compound 2-37, (R)-(sec-butylamino)-7-(4-(methylsulfonyl)phenyl)cinnoline-3-carboxamide], for which, under setting [1], the pIC50 was greater than 8.22.

Regarding `C[C@@H](Nc1c(C(N)=O)nnc2cc(-c3cccc(C(=O)N(C)C)c3)ccc12)C1CC1` [Compound 2-102, (R)-4-(1-cyclopropylethylamino)-7-(3-(dimethylcarbamoyl)phenyl)cinnoline-3-carboxamide], under setting [1], the pIC50 is greater than 8.22.

Consider `CS(=O)(=O)c1ccc(-c2ccc3c(N)c(C(N)=O)nnc3c2)cc1` [Compound 1-5, 4-amino-7-(4-(methylsulfonyl)phenyl)cinnoline-3-carboxamide], for which the pIC50 under setting [1] was 6.85.

For `C[C@@H](Nc1c(C(N)=O)nnc2cc(-c3ccncc3)ccc12)C1CC1` [Compound 2-100, (R)-4-(1-cyclopropylethylamino)-7-(pyridin-4-yl)cinnoline-3-carboxamide], the pIC50 is greater than 8.22.

For `COc1cc(C(=O)N(C)C)ccc1-c1ccc2c(N[C@H](C)C3CC3)c(C(N)=O)nnc2c1` [Compound 2-118, (R)-4-(1-cyclopropylethylamino)-7-(4-(dimethylcarbamoyl)-2-methoxyphenyl)cinnoline-3-carboxamide], the pIC50 under setting [1] was 8.00.

With `COc1cc(-c2nccn2C)ccc1-c1ccc2c(N[C@H](C)C3CC3)c(C(N)=O)nnc2c1` [Compound 11-221, (R)-4-(1-cyclopropylethylamino)-7-(2-methoxy-4-(1-methyl-1H-imidazol-2-yl)phenyl)cinnoline-3-carboxamide], the pIC50 under setting [1] is 8.05.

In the case of `CC(C)Nc1c(-c2nc[nH]n2)nnc2cc(-c3ccc(S(C)(=O)=O)cc3)ccc12` [Compound 8-200, N-Isopropyl-7-(4-(methylsulfonyl)phenyl)-3-(1H-1,2,4-triazol-3-yl)cinnolin-4-amine], under setting [1], the pIC50 was 6.38.

On to `CC(C)(C)Nc1c(C(N)=O)nnc2cc(-c3ccc(S(C)(=O)=O)cc3)ccc12` [Compound 2-91, 4-(tert-butylamino)-7-(4-(methylsulfonyl)phenyl)cinnoline-3-carboxamide], for which the pIC50 under setting [1] is 7.35.

As for `CC[C@@H](C)Nc1c(C#N)nnc2cc(-c3ccc(S(C)(=O)=O)cc3)ccc12` [Compound 2-38, (R)-4-(sec-butylamino)-7-(4-(methylsulfonyl)phenyl)cinnoline-3-carbonitrile], under setting [1], the pIC50 was 6.26.

As for `CS(=O)(=O)c1ccc(-c2ccc3c(NC4CC4)c(C(N)=O)nnc3c2)cc1` [Compound 2-29, 4-(cyclopropylamino)-7-(4-(methylsulfonyl)phenyl)cinnoline-3-carboxamide], under setting [1], the pIC50 is 7.33.

On to `COc1ccc(S(C)(=O)=O)cc1-c1ccc2c(N[C@H](C)C3CC3)c(C(N)=O)nnc2c1` [Compound 2-115, (R)-4-(1-cyclopropylethylamino)-7-(2-methoxy-5-(methylsulfonyl)phenyl)cinnoline-3-carboxamide], for which, under setting [1], the pIC50 was 7.30.

Source of the values: US9884828B2, “Substituted cinnolines as inhibitors of LRRK2 kinase activity” (Imago Pharmaceuticals, Inc., priority 2011, dated 2018).
